One experiment concerns the target T1, PDGFR (UniProt P09619).
T1 construct: PDGFR-β expressing NIH 3T3 cell lysate (SUGEN, Inc.)
The experiment can be described thus: PDGFR bioassay (ELISA, in vitro kinase activity). The format is biochemical. The settings on record: PDGFR-β expressing NIH 3T3 cell lysate, 20 μM ATP. How it is done: This assay is used to the in vitro kinase activity of PDGFR in an ELISA assay.
1. Corning 96-well ELISA plates
2. 28D4C10 monoclonal anti-PDGFR antibody (SUGEN, Inc.).
5. Blocking Buffer (same as for EGFR bioassay).
6. PDGFR-β expressing NIH 3T3 cell lysate (SUGEN, Inc.).
11. Kinase buffer phosphorylation mix: for 10 ml, mix 250 μl 1M TRIS, 200 μl 5M NaCl, 100 μl 1M MnCl2 and 501l 100 mM Triton X-100 in enough dH2O to make 10 ml.
12. NUNC 96-well V bottom polypropylene plates.
14. Rabbit polyclonal anti-phosphotyrosine serum (SUGEN, Inc.).
15. Goat anti-rabbit IgG peroxidase conjugate (Biosource Cat. No. ALI0404).
17. Hydrogen peroxide, 30% solution.
1. Coat Corning 96 well ELISA plates with […] 28D4C 10 in 100 μl PBS per well, hold overnight at 4° C.
2. Remove unbound 28D4C10 from wells by inverting plate to remove liquid. Wash 1× with dH2O. Pat the plate on a paper towel to remove excess liquid.
3. Add 150 μl of Blocking Buffer to each well. Incubate for 30 min. at room temperature with shaking.
4. Wash plate 3× with deionized water, then once with TBST. Pat plate on a paper towel to remove excess liquid and bubbles.
5. Dilute lysate in HNTG (10 μg lysate/100 μl HNTG).
6. Add 100 μl of diluted lysate to each well. Shake at room temperature for 60 min.
7. Wash plates as described in Step 4.
8. Add 80 μl working kinase buffer mix to ELISA plate containing captured PDGFR.
9. Dilute test compound 1:10 in TBS in 96-well polypropylene plates.
10. Add 10 μl diluted test compound to -ELISA plate. To control wells, add 10 μl TBS+10% DMSO. Incubate with shaking for 30 minutes at room temperature.
11. Add 10 μl ATP directly to all wells except negative control well (final well volume should be approximately 100 μl with 20 μM ATP in each well.) Incubate 30 minutes with shaking.
12. Stop reaction by adding 10 μl of EDTA solution to each well.
13. Wash 4× with deionized water, twice with TBST.
14. Add 100 μl anti-phosphotyrosine (1:3000 dilution in TBST) per well.
Incubate with shaking for 30-45 min. at room temperature.
16. Add 100 μl Biosource Goat anti-rabbit IgG peroxidase conjugate (1:2000 dilution in TBST) to each well. Incubate with shaking for 30 min. at room temperature.
18. Add 100 μl of ABTS/H2O2 solution to each well.
19. Incubate 10 to 30 minutes with shaking. Remove any bubbles.
20. If necessary stop reaction with the addition of 100 μl 0.2 M HCl per well.
21. Read assay on Dynatech MR7000 ELISA reader with test filter at 410 nM and reference filter at 630 nM.
A general note: In an ELISA, binding on a coated surface is turned into a signal by an enzyme label.

The target in the next experiment is T2, SRC (Homo sapiens, UniProt P12931).
T2 construct: purchased UBI 14-117
The experiment can be described thus: Src transphosphorylation assay. The format is biochemical. As to conditions: recombinant human Src, poly(Glu-Tyr) substrate. How it is done: Src Transphosphorylation Assay
This assay is used to screen for inhibitors of the tyrosine kinase Src.
1. Coating buffer: PBS containing sodium azide (0.2 mg/ml).
3. Wash buffer: PBS containing 0.05% v/v Tween 20 (PBS-TWEEN)
5. ATP (40 [M)+MgCl2 (80 mM) in distilled water.
6. MgCl2 (80 mM) in distilled water (for no ATP blanks).
7. Test compounds, 10 mM in DMSO.
8. Assay Buffer: 100 mM HEPES, pH 7.4, containing 2 mM DTT, 0.2 mM sodium orthovanadate and 0.2 mgs/ml BSA.
9. Partially purified recombinant human Src (UBI (14-117)
10. Anti-phosphotyrosine (SUGEN rabbit polyclonal anti-PY).
11. HRP-linked goat anti-rabbit Ig (Biosource International #6430)
12. HRP substrate ABTS or Pierce Peroxidase substrate.
13. Corning ELISA plates.
1. Coat plates with 100 μl of 20 μg/ml poly(Glu-Tyr) (Sigma Cat. No.P0275) containing 0.01% sodium azide. Hold overnight at 4° C.
2. Block with 1% BSA at 100 μl/well for one hour at room temperature.
3. Plate test compounds (10 mM in DMSO) at 2 ul/well on a Costar plate ready for dilution with dH2O and plating to reaction plates.
4. Dilute Src kinase 1:10,000 in Reaction Buffer, for 5 plates prepare 25 ml as follows: 2.5 mls 1M HEPES pH7.4 (stored sterile at 4° C.), 21.85 ml distilled water, 0.1 ml 5% BSA, 0.5 ml 10 mM sodium orthovanadate (stored sterile at 4° C.), 50 μl 1.0M DTT (stored frozen at […]), and 2.5 μl Src Kinase (stored frozen at −80° C.).
5. Add 48 μl of distilled water to the 2 ∥l of each compound in the dilution plate then add 25 μl/well of this to the reaction plate.
6. Add 50 μl of […] to each reaction buffer well and then 25 μl ATP-MgCl2/well (MgCl2 only to no ATP blanks). Incubate at room temperature for 15 minutes on plate shaker. Stop reaction by adding 25 μl of 0.5M EDTA to each well.
7. Wash 4× with PBS-TWEEN.
8. […] Incubate with continuous shaking at room temperature for one hour.
9. Wash plates 4× with PBS-TWEEN.
10. Add 100 μl HPP-linked Ig (1:5,000) in PBS-TWEEN containing 0.5% BSA, 0.025% Non-fat milk powder, 100 μM sodium orthovanadate. Incubate with shaking at room temperature for one hour.
11. Wash plates 4× with PBS-TWEEN and then once with PBS.
12. Develop plate using ABTS or other peroxidase substrate.

Each structure is given as a SMILES string.

T2 sequence (P12931 whole entry): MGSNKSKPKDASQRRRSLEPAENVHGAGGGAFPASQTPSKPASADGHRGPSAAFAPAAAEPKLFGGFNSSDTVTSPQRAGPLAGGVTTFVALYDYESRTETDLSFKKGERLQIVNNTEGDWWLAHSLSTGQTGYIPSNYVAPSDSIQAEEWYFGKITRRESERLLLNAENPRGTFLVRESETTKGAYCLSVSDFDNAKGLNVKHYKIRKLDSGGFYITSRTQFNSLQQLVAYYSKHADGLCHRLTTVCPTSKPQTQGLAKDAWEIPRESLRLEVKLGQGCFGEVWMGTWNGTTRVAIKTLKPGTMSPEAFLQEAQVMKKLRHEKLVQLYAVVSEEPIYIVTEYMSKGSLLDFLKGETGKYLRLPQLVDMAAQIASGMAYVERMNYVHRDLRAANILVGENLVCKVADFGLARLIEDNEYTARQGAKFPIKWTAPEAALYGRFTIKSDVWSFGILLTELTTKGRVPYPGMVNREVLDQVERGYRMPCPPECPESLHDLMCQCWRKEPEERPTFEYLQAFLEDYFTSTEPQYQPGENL

For orientation: IC50 means the concentration that inhibits the measured activity by half. Consider `CCN(CC)CCNC(=O)c1c(C)[nH]c(/C=C2\C(=O)Nc3cccc(-c4ccccc4)c32)c1C` [Example 3, 2,4-Dimethyl-5-(2-oxo-4-phenyl-1,2-dihydro-indol-3-ylidenemethyl)-1H-pyrrole-3-carboxylic Acid (2-Diethylamino-ethyl)-amide], for which the IC50 is 0.44 µM at PDGFR and 1.02 µM at SRC.
For `Cc1[nH]c(/C=C2\C(=O)Nc3cccc(-c4ccc(F)cc4)c32)c(C)c1C(=O)N1CCN(C)CC1` [Example 4, 3-[3,5-Dimethyl-4-(4-methyl-piperazine-1-carbonyl)-1H-pyrrol-2-ylmethylene]-4-(4-fluoro-phenyl)-1,3-dihydro-indol-2-one], in that order: 14.6 µM and over 20 µM.
On the same counts, the results for `Cc1[nH]c(/C=C2\C(=O)Nc3cccc(-c4ccc(F)cc4)c32)c(C)c1C(=O)NCCN1CCCC1` [Example 6, 5-[4-(4-Fluoro-phenyl)-2-oxo-1,2-dihydro-indol-3-ylidenemethyl]-2,4-dimethyl-1H-pyrrole-3-carboxylic Acid (2-Pyrrolidin-1-yl-ethyl)-amide] are 2.95 µM and 4.93 µM.
For `Cc1cc(C(=O)N2CC[C@H](N(C)C)C2)c(/C=C2\C(=O)Nc3cccc(-c4ccc(F)cc4)c32)[nH]1` [Example 10, 3-[3-((S)-3-Dimethylamino-pyrrolidine-1-carbonyl)-5-methyl-1H-pyrrol-2-ylmethylene]-4-(4-fluoro-phenyl)-1,3-dihydro-indol-2-one], the figures for the half-maximal inhibitory concentration (IC50) at PDGFR and on SRC were 11.9 µM and 1.82 µM, respectively.
For `CCN(CC)CCNC(=O)c1c(C)[nH]c(/C=C2\C(=O)Nc3cccc(-c4cccc(F)c4)c32)c1C` [Example 13, 5-[4-(3-Fluoro-phenyl)-2-oxo-1,2-dihydro-indol-3-ylidenemethyl]-2,4-dimethyl-1H-pyrrole-3-carboxylic Acid (2-Diethylamino-ethyl)-amide], in that order: 2.32 µM and 1.05 µM.
Consider `Cc1[nH]c(/C=C2\C(=O)Nc3cccc(-c4cccc(F)c4)c32)c(C)c1C(=O)NCCn1ccnn1` [Example 15, 5-[4-(3-Fluoro-phenyl)-2-oxo-1,2-dihydro-indol-3-ylidenemethyl]-2,4-dimethyl-1H-pyrrole-3-carboxylic Acid (2-[1,2,3]Triazol-1-yl-ethyl)-amide], for which the results for the IC50 against PDGFR and on SRC were 10.1 µM and 2.27 µM, respectively.
For `CCOC(=O)c1c(C)[nH]c(/C=C2\C(=O)Nc3cccc(-c4cccc(F)c4)c32)c1CCCN1CCN(C)CC1` [Example 18, 5-[4-(3-Fluoro-phenyl)-2-oxo-1,2-dihydro-indol-3-ylidenemethyl]-2-methyl-4-[3-(4-methyl-piperazin-1-yl)-propyl]-1H-pyrrole-3-carboxylic Acid Ethyl Ester], in that order: 10.4 µM and 7.81 µM.
On to `Cc1[nH]c(/C=C2\C(=O)Nc3cccc(-c4ccc(Cl)cc4)c32)c(C)c1C(=O)N1CCN(C)CC1` [Example 20, 4-(4-Chloro-phenyl)-3-[3,5-dimethyl-4-(4-methyl-piperazine-1-carbonyl)-1H-pyrrol-2-ylmethylene]-1,3-dihydro-indol-2-one], for which the IC50 on PDGFR was determined as 3.39 µM; on SRC it was 10.4 µM.
On the same counts, the results for `Cc1[nH]c(/C=C2\C(=O)Nc3cccc(-c4ccc(Cl)cc4)c32)c(C)c1C(=O)NCCN1CCCC1` [Example 22, 5-[4-(4-Chloro-phenyl)-2-oxo-1,2-dihydro-indol-3-ylidenemethyl]-2,4-dimethyl-1H-pyrrole-3-carboxylic Acid (2-Pyrrolidin-1-yl-ethyl)-amide] are 1.64 µM and 1.58 µM.
On the same counts, the results for `Cc1cc(C(=O)N2CC[C@@H](N(C)C)C2)c(/C=C2\C(=O)Nc3cccc(-c4ccc(Cl)cc4)c32)[nH]1` [Example 25, 4-(4-Chloro-phenyl)-3-[3-((R)-3-dimethylamino-pyrrolidine-1-carbonyl)-5-methyl-1H-pyrrol-2-ylmethylene]-1,3-dihydro-indol-2-one] are 11.7 µM and 9.86 µM.
As to `Cc1cc(C(=O)N2C[C@@H](C)N[C@@H](C)C2)c(/C=C2\C(=O)Nc3cccc(-c4ccc(Cl)cc4)c32)[nH]1` [Example 27], the 50% inhibitory concentration (IC50) against PDGFR was over 20 µM; at SRC, 13.9 µM.
For the compound `CCN(CC)CCNC(=O)c1c(C)[nH]c(/C=C2\C(=O)Nc3cccc(-c4cccc(Cl)c4)c32)c1C` [Example 29, 5-[4-(3-Chloro-phenyl)-2-oxo-1,2-dihydro-indol-3-ylidenemethyl]-2,4-dimethyl-1H-pyrrole-3-carboxylic Acid (2-Diethylamino-ethyl)-amide], the IC50 is 0.69 µM against PDGFR and 1.25 µM at SRC.
On the same counts, the results for `Cc1cc(C(=O)N2CC[C@H](N(C)C)C2)c(/C=C2\C(=O)Nc3cccc(-c4cccc(Cl)c4)c32)[nH]1` [Example 32, 4-(3-Chloro-phenyl)-3-[3-((S)-3-dimethylamino-pyrrolidine-1-carbonyl)-5-methyl-1H-pyrrol-2-ylmethylene]-1,3-dihydro-indol-2-one] are 11.6 µM and 5.37 µM.
For `Cc1cc(C(=O)NCCn2ccnn2)c(/C=C2\C(=O)Nc3cccc(-c4cccc(Cl)c4)c32)[nH]1` [Example 34, 2-[4-(3-Chloro-phenyl)-2-oxo-1,2-dihydro-indol-3-ylidenemethyl]-5-methyl-1H-pyrrole-3-carboxylic Acid (2-[1,2,3]Triazol-1-yl-ethyl)-amide], the IC50 was over 20 µM against PDGFR and 7.26 µM at SRC.
For `Cc1cc(C(=O)N2C[C@@H](C)N[C@@H](C)C2)c(/C=C2\C(=O)Nc3cccc(-c4cccc(Cl)c4)c32)[nH]1` [Example 35, 4-(3-Chloro-phenyl)-3-[3-((cis)-3,5-dimethyl-piperazine-1-carbonyl)-5-methyl-1H-pyrrol-2-ylmethylene]-1,3-dihydro-indol-2-one], in that order: 1.59 µM and 9.72 µM.
Take `COc1ccc(-c2cccc3c2/C(=C/c2[nH]c(C)c(C(=O)NCCN4CCCC4)c2C)C(=O)N3)cc1` [Example 38, 5-[4-(4-Methoxy-phenyl)-2-oxo-1,2-dihydro-indol-3-ylidenemethyl]-2,4-dimethyl-1H-pyrrole-3-carboxylic Acid (2-Pyrrolidin-1-yl-ethyl)-amide]: the IC50 came out at 2.19 µM at PDGFR and 1.25 µM at SRC.

The values above are taken from patent US6677368B2, “4-aryl substituted indolinones” (Sugen, Inc., priority 2000, dated 2004).
